Read-outs that look alike come from different tables or passages of the source. Square brackets hold non-standard residues; d marks the D form. Peptide text beside a SMILES is read from it. * marks the point of attachment. Dolaproine = CO[C@@H]([C@@H]1CCCN1)[C@@H](C)C(=O)O; Dil = CC[C@H](C)[C@H](NC)[C@@H](CC(=O)O)OC; X1 = C[C@@H](N*)[C@@H](O)c1ccccc1; NMeV = CN[C@H](C(=O)O)C(C)C
Key:
MCF7 (MCF7/ATCC) cells = assay: In vitro cell viability (cell kill) assay, nuclear counts; assay type: cell-based, human; details: MCF7/ATCC
Excerpt: (§1) PRLR-overexpressing cells, including HEK293, PC3, MCF7 and NCI-N87, were generated to assess the ability of anti-PRLR conjugated antibodies to reduce cell viability. For comparative purposes, PC3 and T47D cells with overexpressed ErbB2 were also generated, as well as an MCF7 cell line over-expressing both hPRLR and hErbB2. Briefly, Lipofectamine® 2000-mediated transfection methodology was utilized to generate HEK293 cells expressing human PRLR (HEK293/hPRLR) or human ErbB2 (HEK293/hErbB2). Lipofectamine LTX with Plus Reagent was used to generate PC3 cells expressing human PRLR (PC3/hPRLR) or human ErbB2 (PC3/hErbB2). Lentiviral-mediated transduction was utilized to generate MCF7 cells expressing human PRLR (MCF7/hPRLR), NCI-N87 cells expressing human PRLR (NCI-N87/hPRLR), T47D cells over-expressing human ErbB2 (T47D/hErbB2), and MCF7 cells expressing both human PRLR and human ErbB2 (MCF7/hPRLR/hErbB2). All lines were selected for at least two weeks in complete growth media plus appropriate selection reagents. Stably expressing populations were enriched for PRLR expression via FACS using the anti PRLR antibody Control I.
(§2) Next, the ability of anti-PRLR-DM1 antibody-drug conjugates (i.e., anti-PRLR antibodies conjugated to DM1 via a non-cleavable linker [SMCC]) to reduce cell viability was determined using in vitro cell based assays. Cells were seeded in PDL-coated 96 well plates at 1500 to 10000 cells per well in complete growth media and allowed to grow overnight. For cell viability curves, ADCs or free DM1 (as the methyl disulfide derivative DM1-SMe) were added to the cells at final concentrations ranging from 500 nM to 5 pM and incubated for 3 days. The 293, PC3 and T47D cells were incubated with CCK8 (Dojindo, Rockville, Md.) for the final 1-3 hours and the absorbance at 450 nm (OD450) was determined on a Flexstation3 (Molecular Devices, Sunnyvale, Calif.). MCF7 cells were treated with Hoechst 33342 nuclear stain while being fixed with 4% formaldehyde. Images were acquired on the ImageXpress micro XL (Molecular Devices, Sunnyvale, Calif.) and nuclear counts were determined via Columbus image analysis software (Perkin Elmer, Shelton, Conn.). Background OD450 values (PC3, 293, and T47D) or nuclear counts (MCF7) from digitonin (40 nM) treated cells was subtracted from all wells and viability was expressed as a percentage of the untreated controls. IC50 values were determined from a four-parameter logistic equation over a 10-point response curve (GraphPad Prism).

[1] = system: MCF7/hPRLR (MCF7/PRLR) cells; assay: as above; assay type: cell-based, human
Excerpt: as §1, §2

T47D cells = assay: In vitro cell viability (cell kill) assay, CCK8; assay type: cell-based, human; details: T47D; for IC50: read-out: IC50
Experimental: as §2

PC3/hPRLR cells = assay: In vitro cell viability (cell kill) assay, CCK8; assay type: cell-based, human; details: Table 18
Excerpt: as §1, §2

PC3 cells = assay: In vitro cell viability (cell kill) assay, CCK8; assay type: cell-based, human
Excerpt: as §1, §2

HEK293 (293) cells = assay: In vitro cell viability (cell kill) assay, CCK8; assay type: cell-based, human
Excerpt: as §1, §2

PRLR expressing cells = assay: In vitro cell viability (cell kill) assay, several cell backgrounds; assay type: cell-based, human; details: PC3/hPRLR and MCF7/hPRLR cell lines
Excerpt: as §1, §2

T47D#11 tumors = assay type: in vivo, CB17 SCID mice; details: for Final Tumor size mm^3 (mean ± SEM) / Average Tumor Growth Inhibition (%): T47D#11 tumors, SCID mice, Day 66; for T47D #11 tumor growth: repeat dosing 5 and 15 mg/kg
Excerpt: (§3) Briefly, 20×10^6 MCF7/PRLR cells (ATCC HTB-22 transfected with full length hPRLR as previously described) were implanted subcutaneously into the left mammary fat pad of female NCr nude mice. In other studies, 10×10^6 PC3/PRLR (ATCC CRL-1435 transfected with full length hPRLR as previously described) were implanted subcutaneously into the left flank of male SCID mice. Additionally, 10×10^6 parental T47D (ATCC HTB-133) or 7.5×10^10 T47D #11 cells (ATCC HTB-133 serially passaged in vivo as described below) were subcutaneously implanted into the left flank of female CB17 SCID mice. All mice were obtained from Taconic (Hudson, N.Y.). Each bolus of cells was supplemented with a 90-day estrogen release pellet (1.7 mg/pellet; Innovative Research America, Sarasota Fla.). […] Control reagents included PBS vehicle, free methyl-disulfide DM1 (DM1-SMe) and isotype Control 1-DM1.
(§4) In multi-dose studies, mice were dosed once a week for a total of three weeks with tumor volumes and body weights being monitored twice weekly throughout the study. Test ADCs were dosed at 5 and/or 15 mg/kg in the multi-dose studies. In single-dose studies, mice received a single dose of test ADC, and tumor volumes and body weights were monitored twice weekly throughout the study. Test ADCs were dosed at 1, 2.5, 5, and 15 mg/kg in the single-dose studies. Average tumor size as well as tumor growth inhibition relative to the vehicle treated group were calculated for each group. Tumors were measured with calipers twice a week until the average size of the vehicle group reached 1000 mm^3. Tumor size was calculated using the formula (length×width^2)/2. Tumor growth inhibition was calculated according to the following formula: (1−((Tfinal−Tinitial)/(Cfinal−Cinitial)))*100, where T (treated group) and C (control group) represent the mean tumor mass on the day the vehicle group reached 1000 mm^3. […] Results are summarized in Tables 21-25 (multi-dose) and Table 26 (single dose). (NT=not tested in the particular experiment shown).

PC3/PRLR tumors = assay: PC3/PRLR xenograft, tumor size and tumor growth inhibition; assay type: in vivo, SCID mice; details: PC3/PRLR tumors TRIAL #2, SCID mice, Day 55
Excerpt: as §3, §4

MCF7/PRLR tumors = assay: MCF7/PRLR breast cancer xenograft, tumor size and tumor growth inhibition; assay type: in vivo, NCr nude mice; details: MCF7/PRLR tumors TRIAL #2, NCr Nude mice, Day 63
Excerpt: as §3, §4

Molecule: CC[C@H](C)[C@@H]([C@@H](CC(=O)N1CCC[C@H]1[C@H](OC)[C@@H](C)C(=O)N[C@H](C)[C@@H](O)c1ccccc1)OC)N(C)C(=O)[C@@H](NC(=O)[C@@H](NC)C(C)C)C(C)C [Free MMAE] (H-[NMeV]V[Dil][Dolaproine]-X1)
- % Kill (MCF7 (MCF7/ATCC) cells; Table 18): 83%
- IC50 (MCF7 (MCF7/ATCC) cells; Table 18): 2.4 nM
- % Kill (MCF7 (MCF7/ATCC) cells; Table 20): 80%
- IC50 (MCF7 (MCF7/ATCC) cells; Table 20): 2.4 nM
- % Kill ([1]; Table 18): 95%
- IC50 ([1]; Table 18): 1.5 nM
- % Kill ([1]; Table 20): 95%
- IC50 ([1]; Table 20): 1.5 nM
- % Kill (T47D cells; Table 19): 100%
- IC50 (T47D cells; Table 19): 1 nM
- % Kill (PC3/hPRLR cells): 77%
- IC50 (PC3/hPRLR cells): 1 nM
- % Kill (PC3 cells; Table 18): 90%
- IC50 (PC3 cells; Table 18): 1.4 nM
- % Kill (HEK293 (293) cells; 293, Table 19): 100%
- IC50 (HEK293 (293) cells; 293, Table 19): 0.9 nM

Molecule: COc1cc2cc(c1Cl)N(C)C(=O)C[C@H](OC(=O)[C@H](C)N(C)C(=O)CCC(C)(C)S)[C@]1(C)O[C@H]1[C@H](C)[C@@H]1C[C@@](O)(NC(=O)O1)[C@H](OC)/C=C/C=C(\C)C2 [Free DM4]
- % Kill (MCF7 (MCF7/ATCC) cells; Table 20): 90%
- IC50 (MCF7 (MCF7/ATCC) cells; Table 20): 1.3 nM
- % Kill ([1]; Table 20): 90%
- IC50 ([1]; Table 20): 2 nM
- % Kill (T47D cells; Table 19): 100%
- IC50 (T47D cells; Table 19): 0.5 nM
- % Kill (HEK293 (293) cells; 293, Table 19): 100%
- IC50 (HEK293 (293) cells; 293, Table 19): 0.6 nM

Molecule: COc1cc2cc(c1Cl)N(C)C(=O)C[C@H](OC(=O)[C@H](C)N(C)C(=O)CCSSC)[C@]1(C)O[C@H]1[C@H](C)[C@@H]1C[C@@](O)(NC(=O)O1)[C@H](OC)/C=C/C=C(\C)C2 [Me-SS-May Free DM1]
- % Kill (T47D cells; Table 13, without PRL): 100%
- IC50 (T47D cells; Table 13, without PRL): 0.3 nM
- % Kill (HEK293 (293) cells; HEK293, Table 13, without PRL): 94%
- IC50 (HEK293 (293) cells; HEK293, Table 13, without PRL): 0.6 nM

B1: H1H6953-mc-vc-PAB-MMAE (conjugate)
VH: EVQLLESGGGLVQPGGTLRLSCAASGFTFSAYAMSWVRQAPGKGLEWVSSINVRAGDTYYADSVKGRFTISRDNSKNTLFLLMNSLRAEDTAAYYCAKARYSSNWGFDFWGQGTLVTVSS
VL: DIVMTQSPDSLTVSLGARTTINCQSSQTILHSSNNHNYLAWYQQKPGLPPKLLIYWSSTRESGVPDRFSGSGSGTDFTLTISSLQAEDVAIYYCQQYSNTPYTFGQGTKLEIN
- cell killing, non-cleavable DM1 ADCs versus cleavable MMAE ADCs (PRLR expressing cells): nearly equivalent cell killing

B2: H1H6782P-DM1: anti-PRLR antibody H1H6782P conjugated to DM1 through an SMCC linker (conjugate)
VH: EVQLVESGGGLVQPGRSLRLSCAASGFTFDDYAMHWVRQAPGKGLEWVSGIIWNSGHIGYGDSVKGRFTISRDNAKKSLYLQMNSLRAEDTALYYCARDSGRYQSYFDYWGQGTLVTVSS
VL: DIQMTQSPSTLSASVGDRVTITCRASHIISSWLAWYQQKPGKAPKVLIFKASSLESGVPSRFSGSGSGTEFTLTISSLQPDDFATYYCQQYNTYSRTFGQGTKVEIK
- Final Tumor size mm^3 (mean ± SEM) (T47D#11 tumors; multi-dose 5 mg/kg): 293 ± 20 mm^3
- Average Tumor Growth Inhibition (%) (T47D#11 tumors; multi-dose 15 mg/kg): 106%
- Final Tumor size mm^3 (mean ± SEM) (T47D#11 tumors; multi-dose 15 mg/kg): 124 ± 36 mm^3
- T47D #11 tumor growth (T47D#11 tumors): potently inhibited tumor growth
- Average Tumor Growth Inhibition (%) (PC3/PRLR tumors; multi-dose 5 mg/kg): 69%
- Final Tumor size mm^3 (mean ± SEM) (PC3/PRLR tumors; multi-dose 5 mg/kg): 490 ± 63 mm^3
- Final Tumor size mm^3 (mean ± SEM) (PC3/PRLR tumors; multi-dose 15 mg/kg): 321 ± 33 mm^3
- % Kill (PC3 cells; Table 11, 3 days): 67%
- % Kill (HEK293 (293) cells; 293, Table 11, 3 days): 86%
- Average Tumor Growth Inhibition (%) (MCF7/PRLR tumors; multi-dose 5 mg/kg): 123%
- Average Tumor Growth Inhibition (%) (MCF7/PRLR tumors; multi-dose 15 mg/kg): 137%

B3: H1H6765P-DM1: anti-PRLR antibody H1H6765P conjugated to DM1 through an SMCC linker (conjugate)
VH: EVQLVESGGGVVRPGGSLRLSCVGSGFSFDDHGMNWVRQGPGKGLEWVSGFNWNGGSTNYAESVKGRFTISRDNARNSLFLQMNSLRAEDTALYYCVRGRSGWFNDAFDVWGPGTMVTVSS
VL: EIVLTQSPGTLSLSPGERATLSCRASQTINSNYLAWYRQKPGQTPRLLIYGTSSRATGIPDRFSGSGSGTDFSLTISRLEPEDFAVFYCQQYAGLPTFGPGTKVDIK
- Final Tumor size mm^3 (mean ± SEM) (T47D#11 tumors; multi-dose 5 mg/kg): 183 ± 28 mm^3
- Average Tumor Growth Inhibition (%) (T47D#11 tumors; multi-dose 15 mg/kg): 111%
- Final Tumor size mm^3 (mean ± SEM) (T47D#11 tumors; multi-dose 15 mg/kg): 69 ± 12 mm^3
- T47D #11 tumor growth (T47D#11 tumors): potently inhibited tumor growth
- Final Tumor size mm^3 (mean ± SEM) (PC3/PRLR tumors; multi-dose 5 mg/kg): 489 ± 70 mm^3
- Average Tumor Growth Inhibition (%) (PC3/PRLR tumors; multi-dose 15 mg/kg): 98%
- Final Tumor size mm^3 (mean ± SEM) (PC3/PRLR tumors; multi-dose 15 mg/kg): 181 ± 42 mm^3
- IC50 (PC3 cells; Table 11, 3 days): 200 nM
- cell killing, non-cleavable DM1 ADCs versus cleavable MMAE ADCs (PRLR expressing cells): nearly equivalent cell killing
- Average Tumor Growth Inhibition (%) (MCF7/PRLR tumors; multi-dose 5 mg/kg): 122%
- Average Tumor Growth Inhibition (%) (MCF7/PRLR tumors; multi-dose 15 mg/kg): 136%
- Final Tumor size mm^3 (mean ± SEM) (MCF7/PRLR tumors; multi-dose 15 mg/kg): 0 ± 0 mm^3

B4: H1H6765-mc-VC-PAB-MMAE (conjugate)
VH: EVQLVESGGGVVRPGGSLRLSCVGSGFSFDDHGMNWVRQGPGKGLEWVSGFNWNGGSTNYAESVKGRFTISRDNARNSLFLQMNSLRAEDTALYYCVRGRSGWFNDAFDVWGPGTMVTVSS
VL: EIVLTQSPGTLSLSPGERATLSCRASQTINSNYLAWYRQKPGQTPRLLIYGTSSRATGIPDRFSGSGSGTDFSLTISRLEPEDFAVFYCQQYAGLPTFGPGTKVDIK
- cell killing, non-cleavable DM1 ADCs versus cleavable MMAE ADCs (PRLR expressing cells): nearly equivalent cell killing

B5: H1H6958N2-mc-VC-PAB-MMAE (conjugate)
VH: QVQLVESGGGVVQPGRSLRLSCGASGFTFRNYGMQWVRQGPGKGLEWVTLISFDGNDKYYADSVKGRFTISRDNSKNTLFLQMNSLRTEDTAVYYCARGGDFDYWGQGTLVTVSS
VL: DIQMTQSPSSLSASVGDRVTITCRASQDIRKDLGWYQQKPGKAPKRLIYAASSLHSGVPSRFSGSGSGTEFTLTISSLQPEDFATYYCLQHNSYPMYTFGQGTKLEIK
- % Kill (PC3 cells; Table 18): 39%
- cell killing, non-cleavable DM1 ADCs versus cleavable MMAE ADCs (PRLR expressing cells): nearly equivalent cell killing

— US10925971B2, “Methods of treating PRLR positive breast cancer” (Regeneron Pharmaceuticals, Inc., priority 2016, dated 2021)
